Among the data in publication PMC6385203, “Mutations in the palm domain disrupt modulation of acid-sensing ion channel 1a currents by neuropeptides” (Scientific Reports, 2019) are koff and kon values, retold here.

A word on the koff: it is the rate constant with which the complex falls apart. Broadly, the kon is the second-order rate constant of association.

Positions count from the first letter of the chain named. Peptide text beside a SMILES is read from it.

Assay [1] concerns the target T1, WT ASIC1a (Homo sapiens, UniProt P78348).
T1 construct: expressed in transfected cells; host or cells: Xenopus laevis oocytes injected with cRNA
T1 sequence (P78348 1-528 G212D): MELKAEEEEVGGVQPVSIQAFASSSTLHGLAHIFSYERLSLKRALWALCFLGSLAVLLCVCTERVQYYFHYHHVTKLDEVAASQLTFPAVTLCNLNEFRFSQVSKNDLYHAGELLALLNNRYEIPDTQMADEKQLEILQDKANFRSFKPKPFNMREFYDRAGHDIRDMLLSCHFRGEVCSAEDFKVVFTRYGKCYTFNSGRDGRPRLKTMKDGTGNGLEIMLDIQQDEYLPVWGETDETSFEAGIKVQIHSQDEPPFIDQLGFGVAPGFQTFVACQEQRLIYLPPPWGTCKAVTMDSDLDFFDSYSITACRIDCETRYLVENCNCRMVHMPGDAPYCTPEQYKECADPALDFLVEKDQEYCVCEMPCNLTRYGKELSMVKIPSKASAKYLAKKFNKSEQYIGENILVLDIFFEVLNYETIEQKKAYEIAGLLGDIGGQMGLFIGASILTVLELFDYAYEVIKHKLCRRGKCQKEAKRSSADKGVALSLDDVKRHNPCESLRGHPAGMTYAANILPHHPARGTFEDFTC
The assay is described as follows: Disappearance of FRRFa-induced Isust on washout, WT. The class given is cell-based. The settings on record: WT in direct comparison with N416C; washout after 50 μM FRRFa 45 s; n = 4. The protocol: (§1) ASIC1a function was measured by two-electrode voltage-clamp after recombinant expression in Xenopus oocytes. The channels were activated by a pH5 stimulation solution from a conditioning solution of pH7.4. […] We measured the rate of FRRFa unbinding, as the disappearance of the sustained current after a 50-s incubation with 50 μM FRRFa, as 0.025 ± 0.005 s^−1 (n = 8, Fig. 2b). […] To determine the kinetics of FRRFa association on ASIC1a, we pre-applied the peptide at a concentration of 50 μM for different time periods in the conditioning solution and measured the sustained current fraction.
(§2) Figure 2 FRRFa modulation of ASIC1a currents is only partially affected by acidic pocket mutations. (a) FRRFa concentration-response curve. Top, representative current traces. Bottom, Isust/Ipeak ratio induced by pH5 as a function of the FRRFa concentration (pre-applied during 45–50 s and present in pH5 solution), n = 7–11. (b) Time course of disappearance of the FRRFa-induced Isust. FRRFa at 50 μM was applied for 45 s, and current was measured once every minute during washout with FRRFa-free solution. Exponential fit shown as solid line (n = 4, error bars are smaller than the symbols). (c) Time course of appearance of Isust. Oocytes were exposed for various durations to 50 μM FRRFa in the pH7.4 conditioning solution, before activation of ASIC currents with pH5, including 50 μM FRRFa. […]

Assay [2] has as its target T2, WT ASIC1a (Homo sapiens, UniProt P78348).
T2 construct: expressed in transfected cells; host or cells: Xenopus laevis oocytes injected with cRNA
T2 sequence (P78348 1-528): T1 sequence (P78348 1-528 G212D) with D212G
In words: Time course of appearance of Isust (association), WT. It counts as cell-based. The following applies: pH 7.4, 50 μM FRRFa pre-applied for different times at pH7.4, n = 4, mean ± SEM, read-out: association rate constant kon. The protocol:
as §1, §2

On to `N=C(N)NCCC[C@H](NC(=O)[C@H](CCCNC(=N)N)NC(=O)[C@@H](N)Cc1ccccc1)C(=O)N[C@@H](Cc1ccccc1)C(N)=O` [FRRFa, Phe-Arg-Arg-Phe-amide] (H-FRRF-NH2), for which the dissociation rate constant (koff) on WT ASIC1a [1] was 0.029 ± 0.011 s⁻¹. Besides, on WT ASIC1a [2], the kon came to 162 ± 84 M⁻¹ s⁻¹.
